Test results: publication PMC9304416, “A phosphite-based screening platform for identification of enzymes favoring nonnatural cofactors” (Scientific Reports, 2022)

Target: T1, ME (malic enzyme) (Escherichia coli, UniProt P26616, L301R/Q392C, form not given)
T1 construct: gene maeA; C-terminal His6 tag kept; expressed in E. coli BW14329 from pTrc99K; crude lysate
Experiment: formazan (MTT/phenazine ethosulfate) absorbance at […] nm, crude lysate
Assay type: biochemical
Conditions: 0.05 mM NCD; 5.0 mM L-malate; 50 mM HEPES pH 7.5; 10 mM MgCl2; room temperature

T1 sequence (P26616 whole entry L301R/Q392C, form open): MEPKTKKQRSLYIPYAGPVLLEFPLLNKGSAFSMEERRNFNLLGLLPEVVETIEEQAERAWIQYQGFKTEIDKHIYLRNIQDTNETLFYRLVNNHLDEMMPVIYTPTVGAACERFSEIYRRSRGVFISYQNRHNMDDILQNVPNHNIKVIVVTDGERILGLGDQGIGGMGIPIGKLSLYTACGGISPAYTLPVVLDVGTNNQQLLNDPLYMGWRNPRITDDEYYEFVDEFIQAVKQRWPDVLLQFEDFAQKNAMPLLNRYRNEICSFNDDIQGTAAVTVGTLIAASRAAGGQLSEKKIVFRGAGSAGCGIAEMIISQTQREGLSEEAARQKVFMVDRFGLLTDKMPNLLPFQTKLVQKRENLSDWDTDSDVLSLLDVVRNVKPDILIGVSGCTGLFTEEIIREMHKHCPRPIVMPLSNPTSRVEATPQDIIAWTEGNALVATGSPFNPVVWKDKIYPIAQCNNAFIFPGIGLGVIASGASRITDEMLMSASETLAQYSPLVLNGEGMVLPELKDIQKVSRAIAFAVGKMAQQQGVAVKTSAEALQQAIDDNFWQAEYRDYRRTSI

Compound: NC(=O)c1ccc[n+]([C@@H]2O[C@H](COP(=O)(O)OP(=O)(O)OC[C@H]3O[C@@H](n4ccc(N)nc4=O)[C@H](O)[C@@H]3O)[C@@H](O)[C@H]2O)c1 [NCD]
- formazan (MTT/phenazine ethosulfate) absorbance at 570 nm, crude lysate: ME* or ME-NCD, activity of ME* or ME toward NCD
